Source: US12435308B2, “Immunomodulation by amniotic fluid mesenchymal stem cells” (Amniotics AB, priority 2020, dated 2025)

Experiments:
[1] = tested on: human PBMCs activated with anti-CD3/anti-CD28; test: PBMC:MSC co-culture ex vivo assay, FACS analysis (cell composition)
Procedure: (§1) For ex vivo analysis, freshly isolated human PBMCs, pooled from three donors, were activated with anti-CD3/anti-CD28 at 10 μg/ml and 5 μg/ml respectively in presence of MSCs ex vivo for 24-72 hours. Following activation, cells were analyzed for effects on cellular composition and cell proliferation using CFSE. In addition, supernatants were analyzed for cytokine levels using Luminex.
(§2) In this example, Peripheral Blood Mononuclear Cells (PBMCs) were isolated from leucocyte concentrate from three different donors (acquired from Blodcentralen, Lunds Universitetssjukhus, Lund, Sweden) through gradient centrifugation using Ficoll. Red blood cells (RBCs) were lysed using lysis buffer (3 min, RT), cells were washed and the isolated PBMCs were pooled. Cell concentration was determined using a Scepter cell counter (Millipore Merck, MA, USA). Cells were diluted to 1×10^7 cells/ml in PBS. Pooled PBMCs were split into 2 different tubes. Pool one was stained with CFSE at 5 μM for 5 minutes (dark, RT). CFSE stained cells were washed with an equal volume of FBS to stop the reaction and washed again with PBS. Pool 2 was left in PBS.
(§3) All cells (PBMCs and MSCs) were diluted in two different cell culture media (M3 and M4) at 2*10^6 cells/ml. Media was supplemented with anti-CD28 at 5 μg/ml. Cells were added to anti-CD3 (10 μg/ml) coated U bottom cell culture plates according to layout below, 200 μl/well in different PBMC:MSC ratios (1:10, 1:5, 1:2.5, 1:0 and 0:1).
(§4) Included were also controls (stimulated and unstimulated PBMCs) and two reference drugs, e.g., cyclosporine (CsA) and Prednisolone. When plating controls, cells were spun down and diluted in media 3 or 4 at 4*10^6 cells/ml. 100 μl PBMCs were added per well. CsA was added at a final concentration of 10 μg/ml and Prednisolone was added at a final concentration of 125 nM. Medium was added to unstimulated control wells. Control cells (AD-MSC) were also analyzed. Cells were incubated for 24-72 hours at 37° C., 5% CO2.
Following 24 hours of incubation, cells in FACS/Luminex plates were stained with CD73, CD4, CD8, CD80, CD206, CD163 and PD-1. Briefly, cells were transferred to V bottom plates and centrifuged at 360×g for 2 min. Supernatant was transferred to a storage plate and put in −20° C. until analysis using Luminex. Cells were washed in PBS, centrifuged at 360×g for 2 min at 4° C. Supernatant was flicked off and surface markers were added. Cells were incubated at +4° C. for 20 minutes (dark). After incubation, cells were washed 1× in PBS, centrifuged at 360×g for 2 min at 4° C. Cells were resuspended in PBS and analyzed using the Attune Nxt flow cytometer. Compensation was performed using beads—AbC Total Compensation capture beads and negative beads. Since compensation was done using beads, FSC and SSC were changed before analyzing samples and adjusted to suit cells.

[2] = tested on: human PBMCs activated with anti-CD3/anti-CD28; test: PBMC:MSC co-culture ex vivo assay, FACS analysis (CFSE proliferation)
Procedure: as §1, §2, §3, §4
To continue with this example, after 72 hours of incubation, CFSE stained cells were stained with CD4, CD8, CD80, CD206 and CD163. Briefly, cells were transferred to V bottom plates, centrifuged at 360×g for 2 min. Cells were washed in PBS, centrifuged at 360×g for 2 min at 4° C. Supernatant was flicked off and surface markers were added. Cells were incubated at +4° C. for 20 minutes. After incubation, cells were washed 1× in PBS, centrifuged at 360×g for 2 min at 4° C. Cells were resuspended in PBS and analyzed using flow cytometry. Compensation was performed using beads—AbC Total Compensation capture beads and negative beads. Since compensation was done using beads, FSC and SSC were changed before analyzing samples and adjusted to suit cells.
The inhibitory effect was calculated according to the two formulas below: […]

[3] = CFSE plates, 72 hours of incubation

C[C@]12C=CC(=O)C=C1CC[C@@H]1[C@@H]2[C@@H](O)C[C@@]2(C)[C@H]1CC[C@]2(O)C(=O)CO [Prednisolone]
% cytotoxic T cells (CD8+ lymphocytes) [1]: lower levels
expression level of CD73+M1 ([1]; 24 hours of incubation): lower expression level
expression level of CD73+M2 ([1]; 24 hours of incubation): lower expression level
% T helper cells (CD4+ lymphocytes) ([1]; 24 hours of incubation, versus control): higher levels
macrophage polarization (shift towards M2) ([1]; assay controls, cell composition): shift towards M2
effect on cytotoxic T cells [2]: no effect
effect on M1 expression level [2, 3]: no effect
effect on M2 expression level [2, 3]: no effect
effect on T helper cells [2, 3]: no effect
